OC[C@H]1O[C@H](O[C@H]2O[C@H](CO)[C@@H](O)[C@H](O)[C@H]2O)[C@H](O)[C@@H](O)[C@@H]1O
solubility (mole fraction)
Settings | 288.15 K | 293.15 K | 298.15 K | 303.15 K | 308.15 K | 313.15 K | 318.15 K
in ethanol | 0.000652 | 0.000701 | 0.000778 | 0.000852 | 0.000905 | 0.000989 | 0.00108
in water | 0.0344 | 0.0381 | 0.0437 | 0.0545 | 0.0636 | 0.0683 | 0.114
